Experimental data published in PMC7106487, “Design, Synthesis and Discovery of N,N’‐Carbazoyl‐aryl‐urea Inhibitors of Zika NS5 Methyltransferase and Virus Replication” (Chemmedchem, 2020).
Like-named read-outs stand apart in the source and are kept apart here.

How the values were obtained:
host cell = experiment: in vitro; format: cell-based
Description: (§1) Finally, the ability of all the derivatives synthesized in this work to inhibit ZIKV replication was assessed. […]

in vitro [1] = format: cell-based; details: ZIKV CC50
Description: as §1

ZIKV = experiment: CPE-reduction assay, inhibition of ZIKV replication; design: species or system Zika virus (ZIKV); details: cell-based CPE-reduction assay; for EC50: Zika virus
Description: as §1

ZIKV NS5-MTase = biological target: T1, ZIKV NS5-MTase (Zika virus, UniProt Q32ZE1); experiment: MTase inhibition assay ([3H]-SAM, GpppAC4 RNA substrate, DEAE filter binding); format: biochemical; details: for inhibition at 50 µM / inhibition of ZIKV NS5-MTase: initial screen, compounds at 50 μM, 30 min at 30 °C
T1 construct: made in house
T1 sequence (Q32ZE1 2517-2781): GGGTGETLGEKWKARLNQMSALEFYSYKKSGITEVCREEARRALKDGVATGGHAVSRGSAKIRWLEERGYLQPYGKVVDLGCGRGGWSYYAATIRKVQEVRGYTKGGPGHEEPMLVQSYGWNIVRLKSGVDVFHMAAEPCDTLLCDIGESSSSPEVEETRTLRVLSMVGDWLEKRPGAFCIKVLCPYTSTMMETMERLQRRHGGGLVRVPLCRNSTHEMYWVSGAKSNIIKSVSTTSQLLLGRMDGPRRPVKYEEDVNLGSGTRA
Description: (§2) The library of compounds 9, 11, 12, 14, 15, 16 and 21 was then assessed on different purified recombinant MTases. All compounds were initially screened at 50 μM against ZIKV NS5‐MTase and hRNMT as well as against DENV NS5‐MTase due to its similarity with ZIKV protein. The SAM mimetic sinefungin was included as control.
(§3) The MTases were incubated with radiolabeled [^3H]‐SAM together with the GpppAC4 RNA substrate and the different compounds at 50 μM. The reaction was stopped after 30 mins at 30 °C. The sample products were filtered on a DEAE membrane to remove non‐incorporated [^3H]‐SAM, and radioactivity transferred on the RNA substrate was counted. […]
(§4) DENV, ZIKV and hRNMT MTase production and purification
(§5) The coding sequence of the ZIKV MTase domain was cloned in pDest 14 (Invitrogen) expression vector as recently described,9 and the DENV and ZIKV MTase were produced and purified following the protocols applied for the DENV MTase.10 The human N7-MTase (hRNMT) was cloned in pDest 14 (Invitrogen) expression vector as described.11 The hRNMT was produced in e.coli Rosetta (DE3) cells transformed with pDest14/6His -hRNMT and purified on immobilized-metal-affinity chromatography (IMAC, Amersham Biosciences) followed by hearine, as described previously.11
(§6) The MTase activity of the different recombinant proteins was assayed upon pre -incubation of the MTase (5 min) with a selected fragment and the reactions were started by addition of a […]
(§7) small capped RNA substrate GpppAC4 with the [3H]AdoMet.12 The MTase activity assay was performed in 20 µl samples containing 40 mM Tris-HCl pH 7.5, 5 mM DTT (except for hRNMT), 10 µM AdoMet (0.2-2 µCi [3H]SAM), 1 µM of DENV or ZIKV MTase or 200 nM of hRNMT, 1 µM GpppAC4 in presence of 1µl of compounds solubilized in DMSO 100%.
(§8) Reactions were incubated at 30°C for 30 min and stopped by 20-fold dilution in an ice-cold 100 µM AdoHcy (SAH) solution. Samples were then transferred onto a DEAE membrane (DEAE Filtermat; Wallac) by using a Filtermat Harvester (Packard Instruments) washed with 0.01 M ammonium formate (pH 8.0), water and 95 % ethanol, and the radioactivity transferred onto RNA was measured using a Wallac 1450 MicroBeta Trilux Liquid Scintillation Counter.
(§9) The inhibitor concentration at 50% activity (IC50) was determined by performing the MTase assays in presence of serial dilution of the inhibitor in DMSO (final concentration in the assay 5%). All data points were measured in duplicate. The IC50 values were determined by curve fitting with Prism software using a logistic dose-response function: % activity = 100/(1+[I]/IC50)b, where b corresponds to the slope factor and [I] to inhibitor concentration. […]
(§10) Spectrometer using low-resolution ESI or high-resolution nano ESI techniques. The purity of the compounds was assessed by reverse -phase liquid chromatography coupled with a mass spectrometer (Agilent series 1100 LC/MSD) with a UV detector at λ = 254 nm and an electrospray ionization source (ESI). HPLC analysis was carried out using a Perkin -Elmer 1100 HPLC system coupled with UV/Vis set to 254 nm. Mass spectra were acquired in positive mode scanning over the mass range of 50–1500. The following ion source parameters were used: drying gas flow, […]; nebulize pressure, 40 psig; and drying gas temperature, 350 […]
(§11) performed using commercially available pre-coated plates and visualized with UV light at 254 nm; KMnO4 was used to reveal the products. Flash column chromatography was carried out using Sigma Aldrich silica gel particle size, 40-63 µm particle size 60 Å. All reactions were conducted under a nitrogen atmosphere in oven-dried glassware unless stated otherwise. All solvents and commercially available reagents were used as received.

hRNMT (human N7-MTase) = biological target: T2, hRNMT (human N7-MTase) (Homo sapiens, UniProt O43148); experiment: as above; format: biochemical; details: dose-response, 200 nM hRNMT, 10 µM AdoMet, 30 min at 30 °C
T2 construct: 6His (N); made in house; host or cells: E. coli Rosetta (DE3)
T2 sequence (O43148 whole entry): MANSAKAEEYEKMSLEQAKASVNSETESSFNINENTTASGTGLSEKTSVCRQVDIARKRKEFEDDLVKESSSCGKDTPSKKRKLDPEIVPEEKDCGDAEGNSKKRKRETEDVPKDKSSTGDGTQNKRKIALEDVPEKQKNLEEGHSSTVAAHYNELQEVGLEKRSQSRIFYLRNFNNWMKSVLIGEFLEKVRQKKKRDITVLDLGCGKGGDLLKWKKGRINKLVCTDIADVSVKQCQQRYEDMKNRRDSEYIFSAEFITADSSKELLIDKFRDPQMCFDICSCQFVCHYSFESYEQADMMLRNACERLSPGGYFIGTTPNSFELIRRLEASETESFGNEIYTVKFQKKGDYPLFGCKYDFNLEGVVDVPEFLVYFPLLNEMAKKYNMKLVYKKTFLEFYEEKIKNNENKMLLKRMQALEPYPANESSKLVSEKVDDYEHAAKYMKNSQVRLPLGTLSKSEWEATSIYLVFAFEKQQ
Description: as §2, §3, §4, §5, §6, §7, §8, §9, §10, §11

in vitro [2] = format: cell-based
DENV NS5-MTase = DENV NS5-MTase (Dengue virus type 3, UniProt P27915); experiment: MTase inhibition assay ([3H]-SAM, GpppAC4 RNA substrate, DEAE filter binding); format: biochemical; details: initial screen, compounds at 50 μM, 30 min at 30 °C
Chain of DENV NS5-MTase (P27915 2491-2753): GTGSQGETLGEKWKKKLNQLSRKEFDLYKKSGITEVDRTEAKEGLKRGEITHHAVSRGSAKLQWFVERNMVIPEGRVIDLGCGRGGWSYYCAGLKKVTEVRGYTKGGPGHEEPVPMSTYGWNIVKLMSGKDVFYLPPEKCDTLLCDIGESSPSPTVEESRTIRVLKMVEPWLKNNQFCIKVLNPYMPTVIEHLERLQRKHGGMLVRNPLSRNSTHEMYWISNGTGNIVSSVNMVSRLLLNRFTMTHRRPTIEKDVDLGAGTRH
Description: as §2, §3, §4, §5, §6, §7, §8, §9, §10, §11

DENV = experiment: Cell-based antiviral activity against DENV; details: Dengue virus; cell-based assay

| SMILES | CC50 (in vitro [1]) [µM] | EC50 (ZIKV) [µM] | IC50 (ZIKV NS5-MTase) [µM] | inhibition at 50 µM (ZIKV NS5-MTase) [%] | IC50 (hRNMT (human N7-MTase)) [µM] | also measured |
| --- | --- | --- | --- | --- | --- | --- |
| CCn1c2ccccc2c2cc(NC(=O)Nc3ccc([N+](=O)[O-])cc3C)ccc21 [Compound 6] | > 3.99 | > 3.99 | 35 ± 5 | > 30 | 13.9 ± 0.7 | CC50 (host cell): 3.99 µM; ZIKV EC50 (ZIKV): devoid of any antiviral activity |
| CCn1c2ccccc2c2cc(NC(=O)Nc3ccc([N+](=O)[O-])cc3Cl)ccc21 [Compound 9a] | 30.7 | > 50 | 46 ± 1.1 | > 30 | ~122 |  |
| CCn1c2ccccc2c2cc(NC(=O)Nc3ccc(C#N)cc3)ccc21 [Compound 9b] | > 10 | > 10 | ~144 |  | ~253 |  |
| CCn1c2ccccc2c2cc(NC(=O)Nc3ccc(OC)cc3OC)ccc21 [Compound 9c] | > 10 | > 10 |  |  | 27.4 ± 1.9 |  |
| CCn1c2ccccc2c2cc(NC(=O)Nc3ccc(I)cc3)ccc21 [Compound 9d] | > 50 | > 50 | ~397 | > 30 | 5.3 ± 0.4 |  |
| CCn1c2ccccc2c2cc(NC(=O)Nc3ccc(C(F)(F)F)cc3)ccc21 [Compound 9f] |  |  |  |  | 6.8 ± 0.5 |  |
| CCn1c2ccccc2c2cc(NC(=S)NCc3ccccc3)ccc21 [Compound 11b] | 19.6 | 4.78 | 70 ± 1.3 |  | ~112 |  |
| CCn1c2ccccc2c2cc(NC(=O)Nc3ccc(N)cc3C)ccc21 [Compound 15] | > 12.5 | 1.67 |  | 25 |  | CC50 (in vitro [2]): 20 µM; inhibition of DENV NS5-MTase (DENV NS5-MTase): did not show any effect; EC50 (DENV): 9.75 µM |
| CCn1c2ccccc2c2cc(NC(=O)C(N)CCCCN)ccc21 (stereo not shown) [Compound 16] |  |  |  |  |  | inhibition of ZIKV NS5-MTase (ZIKV NS5-MTase): barely inhibited |
| Cc1cc([N+](=O)[O-])ccc1NC(=O)Nc1ccc2c(c1)c1ccccc1n2CCc1ccccc1 [Compound 21b] | 20 | 12.5 | 114 ± 1.3 | > 30 |  | ZIKV CC50 (host cell): showed toxicity |
| O=C(Nc1ccc(I)cc1)Nc1ccc2c(c1)c1ccccc1n2Cc1ccccc1 [Compound 21c] |  |  | 23 ± 1.2 | > 30 |  |  |
| O=C(Nc1ccc(I)cc1)Nc1ccc2c(c1)c1ccccc1n2CCc1ccccc1 [Compound 21d] | 100 | 25 |  |  |  | inhibition of ZIKV NS5-MTase (ZIKV NS5-MTase): poor inhibition |
| COc1ccc(NC(=O)Nc2ccc3c(c2)c2ccccc2n3Cc2ccccc2)c(OC)c1 [Compound 21e] |  |  | 48 ± 1.3 |  |  |  |
| COc1ccc(NC(=O)Nc2ccc3c(c2)c2ccccc2n3CCc2ccccc2)c(OC)c1 [Compound 21f] | 20 | > 20 | 26 ± 1.2 |  |  | ZIKV CC50 (host cell): showed toxicity |
| Nc1ncnc2c1ncn2[C@@H]1O[C@H](C[C@@H](N)CC[C@H](N)C(=O)O)[C@@H](O)[C@H]1O [Sinefungin, reference compound] |  |  | 1.18 ± 0.05 |  |  |  |
